Measured values as given in patent US20250073206A1, “SOLID FORMS OF […] […] USES THEREOF” (Sensorium Therapeutics, Inc., priority 2021, published 2025).
In brackets after ≈: the same amount, converted by molar mass.

What was measured:
[1] = molecular target: sodium-dependent serotonin transporter (SERT) (Homo sapiens, UniProt P31645); settings: naturally occurring, from Sceletium tortuosum; cited from earlier work
[2] = Approximate solubility by visual observation at 25° C.; type: physicochemical; settings: thermodynamic from solid
Protocol: About 5 mg of batch 1 was weighed into a 2 mL glass vial and aliquots of 20 μL of each solvent were added to get a clear solution. Max. volume of each solvent added was 1 mL.

Chain of sodium-dependent serotonin transporter (SERT) (P31645 whole entry, species assumed): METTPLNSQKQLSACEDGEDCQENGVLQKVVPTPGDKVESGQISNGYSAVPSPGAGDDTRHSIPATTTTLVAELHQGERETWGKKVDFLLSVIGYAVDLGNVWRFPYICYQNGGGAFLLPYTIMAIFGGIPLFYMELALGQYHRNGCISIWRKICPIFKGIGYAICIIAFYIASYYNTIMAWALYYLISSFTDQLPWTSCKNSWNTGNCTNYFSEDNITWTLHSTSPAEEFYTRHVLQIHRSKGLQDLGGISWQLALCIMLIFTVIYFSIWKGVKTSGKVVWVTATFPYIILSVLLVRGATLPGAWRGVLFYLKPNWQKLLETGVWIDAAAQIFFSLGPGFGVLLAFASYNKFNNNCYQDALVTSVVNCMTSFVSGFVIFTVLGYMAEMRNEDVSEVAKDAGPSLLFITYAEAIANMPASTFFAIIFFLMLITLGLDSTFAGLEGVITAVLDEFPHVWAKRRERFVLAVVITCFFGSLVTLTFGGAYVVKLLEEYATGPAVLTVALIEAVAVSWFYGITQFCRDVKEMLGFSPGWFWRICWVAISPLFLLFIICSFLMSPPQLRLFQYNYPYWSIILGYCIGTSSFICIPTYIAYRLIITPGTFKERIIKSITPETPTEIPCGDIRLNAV

For `COc1ccc([C@@]23CCC(=O)C[C@@H]2N(C)CC3)cc1OC` [(−) mesembrine, 3a-(3,4-dimethoxyphenyl)-octahydro-1-methyl-6H-indol-6-one], the “serotonin (5-HT) uptake inhibitory activity” value [1] is listed as “serotonin (5-HT) uptake inhibitory activity”, the solubility ([2]; organic solvent or mixture, Acetone) is listed as 125 to 250 mg/mL (≈ 432 to 864 mM) and the solubility ([2]; organic solvent or mixture, Acetonitrile) is listed as 125 to 250 mg/mL (≈ 432 to 864 mM). The solubility ([2]; organic solvent or mixture, Dichloromethane) was 125 to 250 mg/mL (≈ 432 to 864 mM), the solubility ([2]; organic solvent or mixture, Ethanol) was 125 to 250 mg/mL (≈ 432 to 864 mM) and the solubility ([2]; organic solvent or mixture, Ethyl acetate) was 125 to 250 mg/mL (≈ 432 to 864 mM). It also gave a solubility ([2]; organic solvent or mixture, Methanol) of 125 to 250 mg/mL (≈ 432 to 864 mM), a solubility ([2]; organic solvent or mixture, Tetrahydrofuran) of 125 to 250 mg/mL (≈ 432 to 864 mM) and a solubility ([2]; organic solvent or mixture, Toluene) of 7 to 10 mg/mL (≈ 24.2 to 34.6 mM). It also gave a solubility ([2]; organic solvent or mixture, t-Butyl methyl ether) of 125 to 250 mg/mL (≈ 432 to 864 mM) and a solubility ([2]; Water) of 125 to 250 mg/mL (≈ 432 to 864 mM).
